ChEMBL document CHEMBL5247593, “Novel heterocyclic hydroxamates as inhibitors of the mycobacterial zinc metalloprotease Zmp1 to probe its mechanism of function” (Eur J Med Chem, 2022)

tested on: Mycobacterium tuberculosis variant bovis; experiment: Antimycobacterial activity against Mycobacterium bovis ATCC 35734 assessed as inhibition of bacterial growth at 128 uM measured after 7 days by luminescence based analysis relative to control; format: functional; details: ATCC 35734, 168 h, time 7 day

First: CC(C)[C@H](NC(=O)CNC(=O)c1ccn(CC(=O)NOCc2ccccc2)c1)C(=O)O
Second: CC(C)C[C@H](NC(=O)CNC(=O)c1ccn(CC(=O)NOCc2ccccc2)c1)C(=O)O
The inhibition at 128 µM of the first is lower: 8.2% for the first, 9.7% for the second.

Compared with C=CCONC(=O)Cn1ccc(C(=O)N[C@@H](C)C(=O)N[C@@H](CC(C)C)C(=O)O)c1, C=CCONC(=O)Cn1ccc(C(=O)N[C@@H](C)C(=O)N[C@H](C(=O)O)C(C)C)c1 is higher in inhibition at 128 µM: 7.3% for the first, 9.3% for the second.

Going from CC(C)C[C@H](NC(=O)CNC(=O)c1cn(CC(=O)NOCc2ccccc2)c2ccccc12)C(=O)O to CC(C)[C@H](NC(=O)CNC(=O)c1cn(CC(=O)NOCc2ccccc2)c2ccccc12)C(=O)O, the inhibition at 128 µM falls from 33.7% to 10.3%.

Going from COc1nc2ccc(Br)cc2cc1[C@@H](c1ccccc1)[C@@](O)(CCN(C)C)c1cccc2ccccc12 [BEDAQUILINE] to COC(=O)[C@H](CC(C)C)NC(=O)c1cccc(/C=C2\SC(=O)N(CC(=O)NOCc3ccccc3)C2=O)c1, the inhibition at 128 µM falls from 100% to 17.2%.

Going from CC(C)C[C@H](NC(=O)[C@H](C)NC(=O)c1ccn(CC(=O)NOCc2ccccc2)c1)C(=O)O to CC(C)[C@H](NC(=O)[C@H](C)NC(=O)c1ccn(CC(=O)NOCc2ccccc2)c1)C(=O)O, the inhibition at 128 µM falls from 25.2% to 10.2%.

First: COC(=O)[C@@H](NC(=O)c1cccc(/C=C2\SC(=O)N(CC(=O)NOCc3ccccc3)C2=O)c1)C(C)C
Second: COC(=O)[C@@H](NC(=O)c1ccc(/C=C2\SC(=O)N(CC(=O)NOCc3ccccc3)C2=O)cc1)C(C)C
The inhibition at 128 µM of the first is lower: 7.2% for the first, 11.2% for the second.

Going from C=CCONC(=O)Cn1ccc(C(=O)NCC(=O)N[C@@H](CC(C)C)C(=O)O)c1 to C=CCONC(=O)Cn1cc(C(=O)NCC(=O)N[C@@H](CC(C)C)C(=O)O)c2ccccc21, the inhibition at 128 µM rises from 5.2% to 18.3%.

Compared with COC(=O)[C@H](CC(C)C)NC(=O)c1ccc(/C=C2\SC(=O)N(CC(=O)NOCc3ccccc3)C2=O)cc1, C=CCONC(=O)CN1C(=O)S/C(=C\c2ccc(C(=O)N[C@@H](CC(C)C)C(=O)OC)cc2)C1=O is lower in inhibition at 128 µM: 14.6% for the first, 11.3% for the second.

Going from C=CCONC(=O)CN1C(=O)S/C(=C\c2cccc(C(=O)N[C@H](C(=O)OC)C(C)C)c2)C1=O to C=CCONC(=O)CN1C(=O)S/C(=C\c2cccc(C(=O)N[C@@H](CC(C)C)C(=O)OC)c2)C1=O, the inhibition at 128 µM falls from 9.8% to 9.7%.

First: NNC(=O)c1ccncc1 [ISONIAZID]
Second: C=CCONC(=O)CN1C(=O)S/C(=C\c2ccc(C(=O)N[C@H](C(=O)OC)C(C)C)cc2)C1=O
The inhibition at 128 µM of the first is higher: 100% for the first, 10.5% for the second.

Compared with CO[C@H]1/C=C/O[C@@]2(C)Oc3c(C)c(O)c4c(O)c(c(/C=N/N5CCN(C)CC5)c(O)c4c3C2=O)NC(=O)/C(C)=C\C=C\[C@H](C)[C@H](O)[C@@H](C)[C@@H](O)[C@@H](C)[C@H](OC(C)=O)[C@@H]1C [RIFAMPIN], C=CCONC(=O)Cn1cc(C(=O)N[C@@H](C)C(=O)N[C@H](C(=O)O)C(C)C)c2ccccc21 is lower in inhibition at 128 µM: 100% for the first, 18.5% for the second.

Going from CC(C)C[C@H](NC(=O)[C@H](C)NC(=O)c1cn(CC(=O)NOCc2ccccc2)c2ccccc12)C(=O)O to CC(C)[C@H](NC(=O)[C@H](C)NC(=O)c1cn(CC(=O)NOCc2ccccc2)c2ccccc12)C(=O)O, the inhibition at 128 µM rises from 7.2% to 34.2%.

First: C=CCONC(=O)Cn1cc(C(=O)N[C@@H](C)C(=O)N[C@@H](CC(C)C)C(=O)O)c2ccccc21
Second: C=CCONC(=O)Cn1cc(C(=O)NCC(=O)N[C@H](C(=O)O)C(C)C)c2ccccc21
The inhibition at 128 µM of the first is lower: 7.7% for the first, 15.8% for the second.
